Measured values reported in patent publication US6638973B2, “Taxane formulations” (FSU Research Foundation, Inc., priority 2000, dated 2003).
pIC50: −log10 of the molar value. Where two headings read alike, the source gives them in different places.

Test system: HCT116 cells
Experiment: In vitro cytotoxicity measured by the cell colony formation assay
Assay type: cell-based
Conditions: colonies counted after 7 days, read-out: IN VITRO ID 50 (nm) HCT116
Procedure: (§1) Four hundred cells (HCT116) were plated in 60 mm Petri dishes containing 2.7 mL of medium (modified McCoy's 5a medium containing 10% fetal bovine serum and 100 units/mL penicillin and 100 µg/mL streptomycin). The cells were incubated in a CO2 incubator at 37° C. for 5 h for attachment to the bottom of Petri dishes. The compounds identified in Example 2 were made up fresh in medium at ten times the final concentration, and then 0.3 mL of this stock solution was added to the 2.7 mL of medium in the dish. The cells were then incubated with drugs for 72 h at 37° C. At the end of incubation the drug-containing media were decanted, the dishes were rinsed with 4 mL of Hank's Balance Salt Solution (HBSS), 5 mL of fresh medium was added, and the dishes were returned to the incubator for colony formation. The cell colonies were counted using a colony counter after incubation for 7 days.
as §1, with “Example 7” for “Example 2”
as §1, with “Example 22” for “Example 2”
as §1, with “Example 27” for “Example 2”
Four hundred cells (HCT116) were plated in 60 mm Petri dishes containing 2.7 mL of medium (modified McCoy's 5a medium containing 10% fetal bovine serum and 100 units/mL penicillin and 100 µg/mL streptomycin). The cells were incubated in a CO2 incubator at 37° C. for 5 h for attachment to the bottom of Petri dishes. […]

[1] = HCT116 colony formation, 72 h drug incubation, Example 10, C-10 ester/C-7 hydroxy taxanes
[2] = HCT116 cells, 72 h incubation with drug, ID50 = drug concentration producing 50% inhibition of colony formation
[3] = HCT116 cells, colony formation, 72 h incubation with drug, ID50 = drug concentration producing 50% inhibition of colony formation
[4] = HCT116 colony formation, 72 h drug incubation, Example 5, C-7 ester/C-10 hydroxy taxanes

| SMILES | pIC50 [1] | also measured |
| --- | --- | --- |
| CC(=O)OC12COC1CC(O)C1(C)C(=O)C(OC(=O)c3ccco3)C3=C(C)C(OC(=O)C(O)C(NC(=O)OC(C)(C)C)C(C)C)CC(O)(C(OC(=O)c4ccccc4)C21)C3(C)C (stereo not drawn) [Compound 2181] | > 8.00 |  |
| C/C=C/C(=O)N[C@@H](c1cccs1)[C@@H](O)C(=O)O[C@H]1C[C@@]2(O)[C@@H](OC(=O)c3ccccc3)C3[C@](C)(C(=O)[C@H](OC(=O)CC)C(=C1C)C2(C)C)[C@@H](O)C[C@H]1OC[C@@]31OC(C)=O (stereo partly drawn) [Compound 3494] | > 9.00 |  |
| CCC(=O)O[C@H]1C(=O)[C@@]2(C)C([C@H](OC(=O)c3ccccc3)[C@]3(O)C[C@H](OC(=O)[C@H](O)[C@@H](NC(=O)OC(C)C)c4ccco4)C(C)=C1C3(C)C)[C@]1(OC(C)=O)CO[C@@H]1C[C@@H]2O (stereo partly drawn) [Compound 3522] | > 9.00 |  |
| CCCC(=O)OC1C(=O)C2(C)C(O)CC3OCC3(OC(C)=O)C2C(OC(=O)c2ccccc2)C2(O)CC(OC(=O)C(O)C(NC(=O)OC(C)(C)C)C3CCC3)C(C)=C1C2(C)C (stereo not drawn) [Compound 1044] | > 9.00 |  |
| CCCC(=O)N[C@@H](c1cccs1)[C@@H](O)C(=O)O[C@H]1C[C@@]2(O)[C@@H](OC(=O)c3ccccc3)C3[C@](C)(C(=O)[C@H](OC(=O)OCC)C(=C1C)C2(C)C)[C@@H](O)C[C@H]1OC[C@@]31OC(C)=O (stereo partly drawn) [Compound 3155] |  | pIC50 [2]: > 9.00 |
| CCCC(=O)O[C@H]1C(=O)[C@@]2(C)C([C@H](OC(=O)c3ccccc3)[C@]3(O)C[C@H](OC(=O)[C@H](O)[C@@H](NC(=O)OC(C)C)c4cccs4)C(C)=C1C3(C)C)[C@]1(OC(C)=O)CO[C@@H]1C[C@@H]2O (stereo partly drawn) [Compound 3909] | > 9.00 |  |
| C/C=C/C(=O)N[C@@H](c1ccco1)[C@@H](O)C(=O)O[C@H]1C[C@@]2(O)[C@@H](OC(=O)c3ccccc3)C3[C@](C)(C(=O)[C@H](OC(=O)CC)C(=C1C)C2(C)C)[C@@H](O)C[C@H]1OC[C@@]31OC(C)=O (stereo partly drawn) [Compound 3982] | > 9.00 |  |
| CCOC(=O)N[C@@H](c1ccco1)[C@@H](O)C(=O)O[C@H]1C[C@@]2(O)[C@@H](OC(=O)c3ccccc3)C3[C@](C)(C(=O)[C@H](OC(=O)CC)C(=C1C)C2(C)C)[C@@H](O)C[C@H]1OC[C@@]31OC(C)=O (stereo partly drawn) [Compound 3535] | > 9.00 |  |
| COC(=O)O[C@H]1C(=O)[C@@]2(C)C([C@H](OC(=O)c3ccccc3)[C@]3(O)C[C@H](OC(=O)[C@H](O)[C@@H](NC(=O)OC(C)(C)C)c4ccccc4)C(C)=C1C3(C)C)[C@]1(OC(C)=O)CO[C@@H]1C[C@@H]2O (stereo partly drawn) [Compound 2092] |  | pIC50 [2]: > 9.00 |
| CCNC(=O)O[C@H]1C(=O)[C@@]2(C)C([C@H](OC(=O)c3ccccc3)[C@]3(O)C[C@H](OC(=O)[C@H](O)[C@@H](NC(=O)OC(C)(C)C)C4CC4)C(C)=C1C3(C)C)[C@]1(OC(C)=O)CO[C@@H]1C[C@@H]2O (stereo partly drawn) [Compound 2757] |  | pIC50 [3]: > 9.00 |
| CCCC(=O)O[C@H]1C(=O)[C@@]2(C)C([C@H](OC(=O)c3ccccc3)[C@]3(O)C[C@H](OC(=O)[C@H](O)[C@@H](NC(=O)c4ccccc4)c4cccs4)C(C)=C1C3(C)C)[C@]1(OC(C)=O)CO[C@@H]1C[C@@H]2O (stereo partly drawn) [Compound 3258] | > 9.00 |  |
| CCNC(=O)O[C@H]1C(=O)[C@@]2(C)C([C@H](OC(=O)c3ccccc3)[C@]3(O)C[C@H](OC(=O)[C@H](O)[C@@H](NC(=O)OC(C)(C)C)c4ccoc4)C(C)=C1C3(C)C)[C@]1(OC(C)=O)CO[C@@H]1C[C@@H]2O (stereo partly drawn) [Compound 2717] |  | pIC50 [3]: > 9.00 |
| CCC(=O)O[C@H]1C(=O)[C@@]2(C)C([C@H](OC(=O)c3ccccc3)[C@]3(O)C[C@H](OC(=O)[C@H](O)[C@@H](NC(=O)OC(C)(C)C)c4cccs4)C(C)=C1C3(C)C)[C@]1(OC(C)=O)CO[C@@H]1C[C@@H]2O (stereo partly drawn) [Compound 0550] | > 8.00 |  |
| CSCC(=O)O[C@H]1C[C@H]2OC[C@@]2(OC(C)=O)C2[C@H](OC(=O)c3ccccc3)[C@]3(O)C[C@H](OC(=O)[C@H](O)[C@@H](NC(=O)OC(C)(C)C)c4ccco4)C(C)=C([C@@H](O)C(=O)[C@@]21C)C3(C)C (stereo partly drawn) [Compound 5600] |  | pIC50 (HCT116 colony formation, 72 h drug incubation, Example 15, C-7 substituted acetate/C-10 hydroxy taxanes): > 9.00 |
| CCC(=O)O[C@H]1C(=O)[C@@]2(C)C([C@H](OC(=O)c3ccccc3)[C@]3(O)C[C@H](OC(=O)[C@H](O)[C@@H](NC(=O)c4ccccc4)c4ccccc4)C(C)=C1C3(C)C)[C@]1(OC(C)=O)CO[C@@H]1C[C@@H]2O (stereo partly drawn) [Compound 0748] | > 8.00 |  |
| CCOC(=O)OC1C(=O)C2(C)C(O)CC3OCC3(OC(C)=O)C2C(OC(=O)c2ccccc2)C2(O)CC(OC(=O)C(O)C(NC(=O)OC(C)(C)C)c3cccs3)C(C)=C1C2(C)C (stereo not drawn) [Compound 1755] |  | pIC50 [2]: > 9.00 |
| COC(=O)O[C@H]1C[C@H]2OC[C@@]2(OC(C)=O)C2[C@H](OC(=O)c3ccccc3)[C@]3(O)C[C@H](OC(=O)[C@H](O)[C@@H](NC(=O)OCC(C)C)c4ccoc4)C(C)=C([C@@H](O)C(=O)[C@@]21C)C3(C)C (stereo partly drawn) [Compound 4584] |  | pIC50 [2]: > 8.00 |
| CC(=O)O[C@@]12CO[C@@H]1C[C@H](O)[C@@]1(C)C(=O)[C@H](OC(=O)C3CC3)C3=C(C)[C@@H](OC(=O)[C@H](O)[C@H](C=C(C)C)NC(=O)OCC(C)C)C[C@@](O)([C@@H](OC(=O)c4ccccc4)C12)C3(C)C (stereo partly drawn) [Compound 4720] | > 8.00 |  |
| CCC(=O)O[C@H]1C[C@H]2OC[C@@]2(OC(C)=O)C2[C@H](OC(=O)c3ccccc3)[C@]3(O)C[C@H](OC(=O)[C@H](O)[C@@H](NC(=O)OC(C)(C)CC)c4ccco4)C(C)=C([C@@H](O)C(=O)[C@@]21C)C3(C)C (stereo partly drawn) [Compound 6212] |  | pIC50 [4]: > 9.00 |
| C/C=C/C(=O)N[C@@H](c1ccoc1)[C@@H](O)C(=O)O[C@H]1C[C@@]2(O)[C@@H](OC(=O)c3ccccc3)C3[C@](C)(C(=O)[C@H](OC(=O)CC)C(=C1C)C2(C)C)[C@@H](O)C[C@H]1OC[C@@]31OC(C)=O (stereo partly drawn) [Compound 4888] | > 9.00 |  |
| CC(=O)O[C@@]12CO[C@@H]1C[C@H](O)[C@@]1(C)C(=O)[C@H](OC(=O)C3CC3)C3=C(C)[C@@H](OC(=O)[C@H](O)[C@H](C=C(C)C)NC(=O)OC(C)(C)C)C[C@@](O)([C@@H](OC(=O)c4ccccc4)C12)C3(C)C (stereo partly drawn) [Compound 0838] | > 9.00 |  |
| CCCC(=O)O[C@H]1C(=O)[C@@]2(C)C([C@H](OC(=O)c3ccccc3)[C@]3(O)C[C@H](OC(=O)[C@H](O)[C@@H](NC(=O)OC(C)C)c4ccco4)C(C)=C1C3(C)C)[C@]1(OC(C)=O)CO[C@@H]1C[C@@H]2O (stereo partly drawn) [Compound 3417] | > 9.00 |  |
| C/C=C/C(=O)N[C@@H](c1ccco1)[C@@H](O)C(=O)O[C@H]1C[C@@]2(O)[C@@H](OC(=O)c3ccccc3)C3[C@](C)(C(=O)[C@H](O)C(=C1C)C2(C)C)[C@@H](OC(=O)NC1CCCCC1)C[C@H]1OC[C@@]31OC(C)=O (stereo partly drawn) [Compound 5895] |  | pIC50 (HCT116 cells, 72 h drug incubation, ID50 = drug concentration producing 50% inhibition of colony formation): > 9.00 |
| CCCC(=O)N[C@@H](c1cccs1)[C@@H](O)C(=O)O[C@H]1C[C@@]2(O)[C@@H](OC(=O)c3ccccc3)C3[C@](C)(C(=O)[C@H](O)C(=C1C)C2(C)C)[C@@H](OC(=O)CC)C[C@H]1OC[C@@]31OC(C)=O (stereo partly drawn) [Compound 3327] |  | pIC50 [4]: > 8.00 |
